Experimental data: patent publication US20190282600A1, “COMBINATION THERAPIES TARGETING TERT DEPENDENCY FOR CANCER THERAPY” (The Wistar Institute of Anatomy and Biology, priority 2018, published 2019)

How the values were obtained:
[1] = test system: NRAS mutant melanoma cells; test: Reactive oxygen species by flow cytometry (H2DCFDA, MitoSox Red); format: cell-based, Human; conditions: 1 μM 6-thio-dG for 7 days
Experimental: FIGS. 2a to 2c show NRAS^mut melanoma cells (FIG. 2a), BRAF-V600E/NRAS mutant cells derived from melanoma patients resistant to BRAF/MEK inhibitors (FIG. 2b), or non-transformed melanocytes and fibroblasts (FIG. 2c) were treated with 6-thio-dG for 7 days. Cell viability was measured by Alamar Blue assay and calculated relative to DMSO-treated cells. […] Cell death was assessed by PSVUe staining. Percent of apoptotic cells is shown. […] Mean TRF length expressed as kilobase pairs is indicated at the bottom. […] FIG. 2g provides a bar graph showing that DNA damage was assessed by γH2AX staining. […] Tumor volume was measured and average tumor volume (n=4) ±SEM was plotted vs. time.
FIGS. 3a to 3g provides graphs showing that telomere dysfunction enhances oxidative stress leading to upregulation of an antioxidant program. […] Mitochondrial superoxide production was measured by MitoSox Red fluorescence (FIGS. 3c, and 3d) and expressed as fluorescence relative to vector or DMSO controls. […] Transduced M93-047 cells were treated with DMSO or 1 μM of 6-thio-dG and cell death was assessed by Annexin V/PI straining. […] Transduced cells were treated with increasing doses (1, 2.5 and 5 μM) of 6-thio-dG for 7 days and cell death was assessed. […]
General or mitochondrial specific ROS were measured by flow cytometry H2DCFDA or MitoSoxRed (Invitrogen, Waltham, Mass.) following manufacturer's specifications.

[2] = test system: NRAS-WT/BRAF-WT melanoma cells; test: Cell death by Annexin V/PI flow cytometry; format: cell-based, Human; conditions: 1 μM 6-thio-dG, 5 μM Gam, single agents or in combination
Experimental: FIGS. 5a to 5e provide bar graphs showing that combination treatment with 6-Thio-dG and Gamitrinib (Gam) triggers death selectively in NRAS mutant tumor cells. NRAS-WT/BRAF-WT melanoma cells (FIG. 5a), NRAS-WT/BRAF-mut melanoma cells (FIG. 5b), NRAS mutant neuroblastoma cells (FIG. 5c), NRAS-WT/KRAS-mutant colon cancer cells (FIG. 5d), and NRAS-WT/KRAS-mutant lung cancer cells were treated with 1 μM 6-thio-dG for 5 days (FIG. 5e). At day 5, culture medium was replaced and cells treated with 1 μM 6-thio-dG plus 5 μM Gam for two more days. Cells were stained with Annexin V and PI and percent cell death was determined by FACS. Data represent average of three independent experiments +/−SEM; p values were calculated using un-paired Student's t-test; *p<0.05; **p<0.001.
(§1) Cells were seeded in 96-well plates and treated with drugs. After 6 days, cell viability was assessed following 6h incubation with […] Alamar Blue (ThermoFisherScientific, Philadelphia, Pa.) by measuring fluorescence using an EnVision Xcite Multilabel plate reader (Perkin Elmer, Waltham, Mass.). Cell death was determined by flow cytometry using PSVue-643 (Molecular Targeting Technologies) or Annexin V (640919, Biolegend, San Diego, Calif.) and Propidium Iodide (Sigma) staining. Samples were analyzed using a BD LSRII flow cytometer (BD Biosciences, San Jose, Calif.).

[3] = test system: NRAS mutant melanoma cells; test: Cell viability, Alamar Blue assay; format: cell-based, Human
Experimental: (§2) FIGS. 2a to 2c show NRAS^mut melanoma cells (FIG. 2a), BRAF-V600E/NRAS mutant cells derived from melanoma patients resistant to BRAF/MEK inhibitors (FIG. 2b), or non-transformed melanocytes and fibroblasts (FIG. 2c) were treated with 6-thio-dG for 7 days. Cell viability was measured by Alamar Blue assay and calculated relative to DMSO-treated cells. […] Cell death was assessed by PSVUe staining. Percent of apoptotic cells is shown. […] Mean TRF length expressed as kilobase pairs is indicated at the bottom. […] FIG. 2g provides a bar graph showing that DNA damage was assessed by γH2AX staining. Data represent average from three independent experiments ±SEM. *p<0.05; **p<0.01; ***p<0.005 in unpaired Student's t-test. […] Tumor volume was measured and average tumor volume (n=4) ±SEM was plotted vs. time.
as §1

[4] = test system: non-transformed primary human melanocytes; test: Cell viability, Alamar Blue assay; format: cell-based; conditions: telomerase negative cells, 7 days
Experimental: as §2, §1

[5] = test system: non-transformed primary human fibroblasts; test: Cell viability, Alamar Blue assay; format: cell-based; conditions: telomerase negative cells, 7 days
Experimental: as §2, §1

[6] = test system: NRAS mutant melanoma cells; test: Cell death by flow cytometry (PSVue or Annexin V/PI); format: cell-based, Human
Experimental: FIGS. 2a to 2c show NRAS^mut melanoma cells (FIG. 2a), BRAF-V600E/NRAS mutant cells derived from melanoma patients resistant to BRAF/MEK inhibitors (FIG. 2b), or non-transformed melanocytes and fibroblasts (FIG. 2c) were treated with 6-thio-dG for 7 days. Cell viability was measured by Alamar Blue assay and calculated relative to DMSO-treated cells. […] Cell death was assessed by PSVUe staining. Percent of apoptotic cells is shown. […] Mean TRF length expressed as kilobase pairs is indicated at the bottom. […] FIG. 2g provides a bar graph showing that DNA damage was assessed by γH2AX staining. Data represent average from three independent experiments ±SEM. *p<0.05; **p<0.01; ***p<0.005 in unpaired Student's t-test. As presented in FIG. 2h, mice bearing established WM3000 or M93-047 NRAS^mut tumors were treated with vehicle control or 6-thio-dG (2.5 mg/kg i.p; q.d). Tumor volume was measured and average tumor volume (n=4) ±SEM was plotted vs. time.
FIGS. 3a to 3g provides graphs showing that telomere dysfunction enhances oxidative stress leading to upregulation of an antioxidant program. […] Mitochondrial superoxide production was measured by MitoSox Red fluorescence (FIGS. 3c, and 3d) and expressed as fluorescence relative to vector or DMSO controls. […] FIG. 3f provides a bar graph showing that SOD2 was silenced using shRNA. Transduced M93-047 cells were treated with DMSO or 1 μM of 6-thio-dG and cell death was assessed by Annexin V/PI straining. As presented in FIG. 3g, M93-047 cells were transduced with a SOD2 lentiviral construct or empty vector control (pLX304). Transduced cells were treated with increasing doses (1, 2.5 and 5 μM) of 6-thio-dG for 7 days and cell death was assessed. Data represent average from three independent experiments ±SEM. *p<0.05; **p<0.01; ***p<0.005 in unpaired Student's t-test.
FIGS. 4a to 4e provides bar graphs showing that induction of telomere and mitochondrial dysfunction triggers cell death in NRAS mutant melanoma. […] Cell death was assessed by Annexin V and PI staining. […] Cells were stained with Annexin V and PI and percent cell death was determined by flow cytometry. […] P values were calculated using unpaired Student's t-test; * p<0.05; *** p<0.005.
As presented in FIG. 16a, SOD2 was silenced using shRNA. Transduced WM3000 cells were treated with DMSO or 1 μM of 6-thio-dG and cell death was assessed by Annexin V/PI straining. […] Transduced cells were treated with increasing doses (1, 2.5 and 5 μM) of 6-thio-dG for 10 days and cell death was assessed. […]
In FIG. 17a, NRAS^mut melanoma cells were treated with 6-thio-dG (1 μM) for 7 days total. […] Percent cell death was determined by flow cytometry following staining of cells with Annexin V and Propidium iodide. […]

For `Nc1nc2c(ncn2[C@H]2C[C@H](O)[C@@H](CO)O2)c(=S)[nH]1` [6-thio-dG, 6-thio-2′-deoxyguanosine], the “ROS levels (H2DCFDA)” value [1] was “increased levels”, the “mitochondrial ROS levels (MitoSox Red)” value [1] was “increased mitochondrial ROS levels” and the cell death [2] was “did not induce cell death”. The cell viability ([3]; 6-thio-dG for 7 days, relative to DMSO) was “impaired the viability”, the cell viability ([3]; cells driven by secondary mutations in NRAS from patients with acquired resistance to BRAF and MEK inhibitors, 7 days) was “impaired the viability” and the cell viability [4] was “did not significantly affect”. The cell viability [5] was “did not significantly affect”, the “cell death (PSVue staining)” value ([6]; 1 or 5 μM 6-thio-dG for 7 or 14 days) was “led to cell death after 7-14 days” and the “apoptosis / cell death” value ([6]; SOD2 overexpression, 1, 2.5 and 5 μM 6-thio-dG for 7 or 10 days, M93-047, WM3000) was “attenuated the apoptosis-inducing effects”. The “apoptosis / cell death (Annexin V/PI)” value ([6]; SOD2 silenced by shRNA, 1 μM 6-thio-dG, M93-047, WM3000) was “enhanced the ability of 6-Thio-dG to induce apoptosis”.
